Patent US11419333B2, “Compositions and methods for biofilm removal” (ChampionX USA Inc., priority 2018, dated 2022)

Test system: Pseudomonas aeruginosa
Experiment: Biocide test of quats in combination with THPS (ACCUCOUNT ATP)
Format: cell-based
Conditions: 400 ppm (active) quat with addition of 8% THPS, compared to untreated sample
Description: The ability of POLY SUGA quats to act as biocides was tested. […] Each quat was compared to an untreated sample as well as a sample treated with a nonpolymeric cationic quat used as a positive control. Each test contained Pseudomonas aeruginosa, grown to a final density of 1×E8 per mL of cells in 3% sodium chloride containing growth medium. 400 ppm (active) of each quat was added to the mix and incubated for 4 and 24 hrs. After this time, 10 ml aliquots of each sample were drawn for analysis.
Active microbial populations were estimated using the ACCUCOUNT method. ACCUCOUNT uses ATP concentrations measured using fluorescence to indirectly quantitate the number of active microbes in a given sample. It is assumed that each cell contains 1 fg of ATP. By correlating the detected fluorescence to a known concentration of standard-the number of bacterial cells/mL is estimated.
The ability of each quat to act together with a known biocide to reduce microbial populations was tested. […] THPS alone and a non-polymeric cationic quat+THPS were used as positive controls.

Substance: tetrakis(hydroxymethyl)phosphonium sulfate [THPS]
- % reduction in bacteria (4 Hrs.): 89.75%
- % reduction in bacteria (24 Hrs.): 91.73%
